Data reported in patent US20230055021A1, “METHODS FOR TREATING PSYCHIATRIC DISORDERS OR SYMPTOMS THEREOF USING NCAM PEPTIDE MIMETICS” (The Board of Trustees of the Leland Stanford Junior …, priority 2012, published 2023).

What was measured:
adult rats [1] = assay: elevated plus maze (EPM), anxiety-like behavior; type: in vivo; conditions: 1, 5 or 10 mg/kg s.c., injected 30 minutes before test
Method: The NCAM peptide mimetic FGLL (1 mg/kg, 5 mg/kg, or 10 mg/kg) or control was administered subcutaneously (s.c.) to adult rats. For the elevated plus maze (EPM), which measures anxiety-like behavior, animals were injected 30 minutes before the test. For the FST, which measures depression-like behavior, animals were injected 1 hour and 5 hours after Day 1 and 30 minutes before Day 2.
The NCAM peptide mimetic plannexin (10 mg/kg) or vehicle control was acutely administered intraperitoneally (i.p.) to adult rats.
(§1) Plannexin (10 mg/kg, i.p.) or control was also chronically administered to adult rats via injection every 48 hours on odd days. Animals were tested for locomotion on Day 13, tested for anxiety-like behavior with the EPM on Day 14, tested for depression-like behavior with the FST on Days 15 and 16, and sacrificed on Day 17.

adult rats [2] = assay: forced swim test (FST), depression-like behavior; type: in vivo
Method: The NCAM peptide mimetic FGLm (5 μg) or vehicle was administered intracerebroventricularly (i.c.v.) to adult rats. […]
as §1, with “FGLL” for “Plannexin”, “s.c.)” for “i.p.)”, “also” for “also chronically”, “24” for “48”, “for 16” for “on odd”, “17. […]” for “17.”

[3] = 10 mg/kg s.c. every 24 hours for 16 days, FST on Days 15 and 16

Molecule	effect on anxiety as measured by the EPM (adult rats [1])	time spent in the Closed parts of the EPM (adult rats [1]; effect at higher doses)	climbing in FST (adult rats [2]; [3])	effect on depression as measured by the FST (adult rats [2]; [3])	immobility in FST (adult rats [2]; [3])	effect on depression as measured by the FST (adult rats [2]; 5 μg i.c.v., vs vehicle)	immobility in FST (adult rats [2]; 5 μg i.c.v., vs vehicle)	swimming in FST (adult rats [2]; 5 μg i.c.v., vs vehicle)
CC(C)[C@H](NC(=O)[C@H](CCC(=O)O)NC(=O)CNCC(=O)N[C@@H](CCC(=O)O)C(=O)N[C@H](C(=O)N[C@H](C(=O)N[C@@H](C)C(=O)N[C@@H](CCC(=O)O)C(=O)N[C@@H](CC(N)=O)C(=O)N[C@@H](CCC(N)=O)C(=O)N[C@@H](CCC(N)=O)C(=O)NCC(=O)N[C@@H](CCCCN)C(=O)N[C@@H](CO)C(=O)N[C@@H](CCCCN)C(=O)N[C@@H](C)C(N)=O)C(C)C)C(C)C)C(=O)N[C@H](C(=O)N[C@@H](C)C(=O)N[C@@H](CCC(=O)O)C(=O)N[C@@H](CC(N)=O)C(=O)N[C@@H](CCC(N)=O)C(=O)N[C@@H](CCC(N)=O)C(=O)NCC(=O)N[C@@H](CCCCN)C(=O)N[C@@H](CO)C(=O)N[C@@H](CCCCN)C(=O)N[C@@H](C)C(N)=O)C(C)C (stereo in doubt) [FGLL]	increased anxiety	significantly increased	significantly more climbing	decreased depression	less immobility	–	–	–
EVYVVAENQQGKSKA [FGLm, NCAM peptide mimetic]	–	–	–	–	–	decreased depression	less immobility	significantly more swimming
